This note sets out measurements from ChEMBL document CHEMBL5241054, “Effective anti-aromatase therapy to battle against estrogen-mediated breast cancer: Comparative SAR/QSAR assessment on steroidal aromatase inhibitors” (Eur J Med Chem, 2020).

The first test concerns the target T1, Aromatase (Homo sapiens, UniProt P11511).
T1 sequence (P11511 whole entry): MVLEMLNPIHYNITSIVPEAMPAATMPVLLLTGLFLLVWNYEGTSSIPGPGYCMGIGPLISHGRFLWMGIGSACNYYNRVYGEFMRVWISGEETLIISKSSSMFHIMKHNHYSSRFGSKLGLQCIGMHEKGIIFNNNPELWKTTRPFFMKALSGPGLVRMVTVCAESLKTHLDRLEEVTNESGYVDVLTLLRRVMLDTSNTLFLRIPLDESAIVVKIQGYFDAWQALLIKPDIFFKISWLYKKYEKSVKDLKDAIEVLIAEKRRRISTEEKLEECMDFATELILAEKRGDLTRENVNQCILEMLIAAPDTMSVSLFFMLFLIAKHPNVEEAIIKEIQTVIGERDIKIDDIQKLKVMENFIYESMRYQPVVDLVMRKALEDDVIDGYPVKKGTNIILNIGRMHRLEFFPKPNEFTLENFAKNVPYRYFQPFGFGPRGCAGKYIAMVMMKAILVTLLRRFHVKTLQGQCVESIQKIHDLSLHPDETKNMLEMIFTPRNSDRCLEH
`CC(=O)O[C@H]1CCC[C@@]2(C)C1=CC(=O)[C@@H]1[C@@H]2CC[C@]2(C)C(=O)CC[C@@H]12` gave a half-maximal inhibitory concentration (IC50) of 95.1 µM.
Turning to `C[C@]12CC[C@H]3[C@@H](CCC4=CC(=O)C=C[C@@]43CI)[C@@H]1CCC2=O`, 5.5 µM corresponded to half-maximal inhibition (IC50).
In turn, `C[C@]12CCC(=O)C=C1C1OC1[C@@H]1[C@@H]2CC[C@]2(C)C(=O)CC[C@@H]12` (stereo partly specified) had a half-maximal inhibitory concentration (IC50) of 39 µM.
`CC(=O)OC[C@]12CCCC=C1CC[C@@H]1[C@@H]2CC[C@]2(C)C(OC(C)=O)CC[C@@H]12` (stereo partly specified) showed an IC50 of 38 µM.
The compound `C[C@]12CC[C@H]3[C@@H](CCC4=CCCC[C@@]43CO)[C@@H]1C[C@@H](O)C2=O` gave a concentration for half-maximal inhibition (IC50) of 8.99 µM.
On to `CCCCCC[C@@H]1C[C@@]2(C)C(=CC1=O)CC[C@@H]1[C@@H]2CC[C@]2(C)C(=O)CC[C@@H]12`, for which half-maximal inhibition (IC50) was put at 10.4 µM.
Same read-out and setting: the same measure for `C[C@]12CC[C@H]3[C@@H](CC=C4CCCC[C@@]43CO)[C@@H]1CCC2O` (stereo partly specified): 61.9 µM.
In the case of `CCC1C[C@H]2[C@@H]3CC[C@H](O)[C@@]3(C)CC[C@@H]2[C@@]2(C)C=CC(=O)C=C12` (stereo partly specified), the IC50 was 0.0619 µM.
The same measure, in the same setting: to `C[C@]12C=C(CCCCc3ccccc3)C(=O)C=C1CC[C@@H]1[C@@H]2CC[C@]2(C)C(=O)CC[C@@H]12` belongs 34.2 µM; to `C[C@]12CC[C@H]3[C@@H](C(=O)C=C4CCCC[C@@]43CO)[C@@H]1CCC2O` (stereo partly specified), 43 µM.
As for `CO[C@H]1C[C@@H]2[C@H](CC[C@]3(C)C(=O)CC[C@@H]23)[C@@]2(C)CCCC=C12`, the IC50 was 0.16 µM.
`CCCC[C@H]1C[C@@H]2[C@H](CC[C@]3(C)C(=O)CC[C@@H]23)[C@@]2(C)C=CC(=O)C=C12` gave an IC50 of 0.2 µM.
Take `C[C@]12C=C(CCCc3ccccc3)C(=O)C=C1CC[C@@H]1[C@@H]2CC[C@]2(C)C(=O)CC[C@@H]12`: half-maximal inhibition (IC50) was put at 0.145 µM. This IC50 and that of the compound before are within 1.5-fold of each other.
`C[C@]12CCC(=O)C=C1[C@@H](CCCc1ccccc1)C[C@@H]1[C@@H]2CC[C@]2(C)C(=O)CC[C@@H]12` gave a half-inhibitory concentration (IC50) of 400 µM.
The compound `C[C@]12CC[C@H]3[C@@H](CCC4=C(O)C(=O)CC[C@@]43C(F)F)[C@@H]1CCC2=O` had an IC50 of 2.5 µM.
In turn, `C[C@]12CCC(=O)C=C1[C@H](O)C[C@@H]1[C@@H]2CC[C@]2(C)C(=O)CC[C@@H]12` had a half-inhibitory concentration (IC50) of 11 µM. Against the preceding compound, the IC50 is about 4.4-fold higher.
In the case of `C[C@]12C[C@@H](CCCCc3ccccc3)C(=O)C=C1CC[C@@H]1[C@@H]2CC[C@]2(C)C(=O)CC[C@@H]12`, the half-inhibitory concentration (IC50) was 222 µM.
Turning to `CCCCC1=C[C@@]2(C)C(=CC1=O)CC[C@@H]1[C@@H]2CC[C@]2(C)C(=O)CC[C@@H]12`, the 50% inhibitory concentration (IC50) is 1.84 µM.
On to `CCCCC[C@H]1C[C@@H]2[C@H](CC[C@]3(C)C(=O)CC[C@@H]23)[C@@]2(C)CCC(=O)C=C12`, for which the IC50 is 0.4 µM.

A further test addresses T1, Aromatase. The source holds these as a separate data set.
Compound `COc1ccc([C@@H]2[C@H]3C[C@H]4[C@@H]5CCC6=CC(=O)C=C[C@]6(C)[C@H]5CC[C@]4(C)C3=NN2C(C)=O)cc1` had a half-inhibitory concentration (IC50) of 2650 nM.
With `CCCO[C@H]1C[C@@H]2[C@H](CC[C@]3(C)C(=O)CC[C@@H]23)[C@@]2(C)CCC(=O)C=C12`, the IC50 is 1300 nM.
`CCO[C@H]1C[C@@H]2[C@H](CC[C@]3(C)C(=O)CC[C@@H]23)[C@@]2(C)CCC(=O)C=C12` had an IC50 of 1400 nM.
For `C[C@]12C=CC(=O)C=C1[C@@H](OCc1ccccc1)C[C@@H]1[C@@H]2CC[C@]2(C)C(=O)CC[C@@H]12`, the IC50 is 1900 nM.
In turn, `CO[C@@H]1C[C@@]2(C)C(=CC1=O)CC[C@@H]1[C@@H]2CC[C@]2(C)C(=O)CC[C@@H]12` had an IC50 of 11800 nM.
As to `CCCCO[C@H]1C[C@@H]2[C@H](CC[C@]3(C)C(=O)CC[C@@H]23)[C@@]2(C)CCC(=O)C=C12`, inhibition was half-maximal at 780 nM (IC50). This IC50 is about 15-fold lower than that of the compound before.
Take `COc1ccc([C@H]2NN=C3[C@@H]2C[C@H]2[C@@H]4CC[C@H]5C[C@@H](O)CC[C@]5(C)[C@H]4CC[C@]32C)cc1`: the IC50 is 6820 nM.
The same measure, in the same setting: to `C[C@]12C=CC(=O)C=C1[C@H](OCc1ccccc1)C[C@@H]1[C@@H]2CC[C@]2(C)C(=O)CC[C@@H]12` belongs 150 nM; to `CCCCC(=O)O[C@H]1C[C@@H]2[C@H](CC[C@]3(C)C(=O)CC[C@@H]23)[C@@]2(C)CCC(=O)C=C12`, 140 nM; to `CN1N=C2[C@H](C[C@H]3[C@@H]4CCC5=CC(=O)C=C[C@]5(C)[C@H]4CC[C@]23C)[C@H]1c1ccccc1`, 2450 nM.
The same measure, in the same setting: the same measure for `C[C@]12CC[C@@H]3C4CCC(=O)C=C4CC[C@H]3[C@@H]1CCC2=O` (stereo partly specified): 1200 nM; for `CCCC(=O)O[C@@H]1C[C@@H]2[C@H](CC[C@]3(C)C(=O)CC[C@@H]23)[C@@]2(C)CCC(=O)C=C12`: 2700 nM; for `C[C@@H]1C[C@@]2(CO)C(=CC1=O)CC[C@@H]1[C@@H]2CC[C@]2(C)C(=O)CC[C@@H]12`: 11000 nM.
The same measure, in the same setting: to `CCCCC(=O)O[C@@H]1C[C@@H]2[C@H](CC[C@]3(C)C(=O)CC[C@@H]23)[C@@]2(C)CCC(=O)C=C12` belongs 1500 nM.
In the case of `CC(=O)O[C@H]1[C@@H](n2ccnc2)C[C@H]2[C@@H]3CC=C4C[C@@H](N5CCCC5)CC[C@]4(C)[C@H]3CC[C@@]21C`, it took 4900 nM to reach half-maximal inhibition (IC50).
As to `C[C@]12C[C@@H](Cl)C(=O)C=C1CC[C@@H]1[C@@H]2CC[C@]2(C)C(=O)CC[C@@H]12`, the midpoint of inhibition, the IC50, lay at 1400 nM.
Compound `COC1=C[C@@H]2[C@H](CC[C@]3(C)C(=O)CC[C@@H]23)[C@@]2(C)CCC(=O)C=C12` showed an IC50 of 700 nM.
As to `CCO[C@H]1C[C@@H]2[C@H](CC[C@]3(C)C(=O)CC[C@@H]23)[C@@]2(C)C=CC(=O)C=C12`, the IC50 is 1500 nM.
`CCCCCC(=O)O[C@H]1C[C@@H]2[C@H](CC[C@]3(C)C(=O)CC[C@@H]23)[C@@]2(C)C=CC(=O)C=C12` gave an IC50 of 210 nM. Against the preceding compound, the IC50 is about 7.1-fold lower.
`COc1ccc([C@@H]2[C@H]3C[C@H]4[C@@H]5CC[C@H]6CC(=O)CC[C@]6(C)[C@H]5CC[C@]4(C)C3=NN2c2ccccc2)cc1`: the IC50 was 4160 nM. This IC50 lies about 20-fold higher than the previous one.
Compound `C[C@]12CCC(=O)C(S)=C1CC[C@@H]1[C@@H]2CC[C@]2(C)C(=O)CC[C@@H]12` showed an IC50 of 3500 nM.
`CN1N=C2[C@H](C[C@H]3[C@@H]4CC[C@H]5C[C@@H](O)CC[C@]5(C)[C@H]4CC[C@]23C)[C@H]1c1ccccc1` had an IC50 of 6340 nM.
For `CO[C@@H]1C[C@@H]2[C@H](CC[C@]3(C)C(=O)CC[C@@H]23)[C@@]2(C)CCC(=O)C=C12`, the IC50 is 170 nM. This IC50 lies about 37-fold lower than the previous one.
Same read-out and setting: to `C/C=C1\CC[C@@]2(C)[C@@H](CC[C@@H]3[C@@H]2CC[C@]2(C)C4=NN(C)[C@H](c5ccccc5)[C@H]4C[C@@H]32)C1` belongs 3510 nM; to `COc1ccc([C@@H]2[C@H]3C[C@H]4[C@@H]5CC[C@H]6CC(=O)CC[C@]6(C)[C@H]5CC[C@]4(C)C3=NN2C)cc1`, 4560 nM.
Turning to `C[C@]12C[C@@H](Br)C(=O)C=C1CC[C@@H]1[C@@H]2CC[C@]2(C)C(=O)CC[C@@H]12`, 2200 nM corresponded to half-maximal inhibition (IC50). This IC50 lies about 2.1-fold lower than the previous one.
As to `C[C@]12C=CC(=O)C=C1C[C@H](c1ccc(N)cc1)[C@@H]1[C@@H]2CC[C@]2(C)C(=O)CC[C@@H]12`, the IC50 is 9.91 nM.
For `COc1ccc([C@@H]2[C@H]3C[C@H]4[C@@H]5CC[C@H]6CC(=O)CC[C@]6(C)[C@H]5CC[C@]4(C)C3=NN2C(C)=O)cc1`, 4890 nM corresponded to half-maximal inhibition (IC50).
On to `CC(=O)N1N=C2[C@H](C[C@H]3[C@@H]4CCC5=CC(=O)C=C[C@]5(C)[C@H]4CC[C@]23C)[C@H]1c1ccccc1`, for which the half-maximal inhibitory concentration (IC50) is 2880 nM.
`C/C=C1\CC[C@@]2(C)[C@@H](CC[C@@H]3[C@@H]2CC[C@]2(C)C4=NN(c5ccccc5)[C@H](c5ccc(OC)cc5)[C@H]4C[C@@H]32)C1` gave a half-maximal inhibitory concentration (IC50) of 3230 nM.
`C/C=C1\CC[C@@]2(C)[C@@H](CC[C@@H]3[C@@H]2CC[C@]2(C)C4=NN(C)[C@H](c5ccc(OC)cc5)[C@H]4C[C@@H]32)C1`: inhibition was half-maximal at 3400 nM (IC50).
Same read-out and setting: to `COc1ccc([C@@H]2[C@H]3C[C@H]4[C@@H]5CC[C@H]6C[C@@H](O)CC[C@]6(C)[C@H]5CC[C@]4(C)C3=NN2c2ccccc2)cc1` belongs 5920 nM.
Compound `CCCCO[C@@H]1C[C@@H]2[C@H](CC[C@]3(C)C(=O)CC[C@@H]23)[C@@]2(C)C=CC(=O)C=C12` showed an IC50 of 460 nM.
Turning to `COCSC1=C2CC[C@@H]3[C@H](CC[C@]4(C)C(=O)CC[C@@H]34)[C@@]2(C)CCC1=O`, 10000 nM corresponded to half-maximal inhibition (IC50).
Compound `C[C@]12CC[C@H](OC(=O)C(F)(F)F)C[C@@H]1CC[C@@H]1[C@@H]2CC[C@]2(C)C(=O)/C(=C\c3ccccc3)C[C@@H]12` had an IC50 of 7110 nM.
Consider `CCCCCCCC(=O)O[C@@H]1C[C@@H]2[C@H](CC[C@]3(C)C(=O)CC[C@@H]23)[C@@]2(C)CCC(=O)C=C12`, for which half-maximal inhibition (IC50) was put at 1500 nM.
In the case of `CCC(=O)O[C@H]1C[C@@H]2[C@H](CC[C@]3(C)C(=O)CC[C@@H]23)[C@@]2(C)CCC(=O)C=C12`, the concentration for half-maximal inhibition (IC50) was 210 nM. Compared with the last compound, the IC50 is about 7.1-fold lower.

Usually IC50 stands for the point on the concentration scale where inhibition reaches its midpoint. Low readings indicate higher potency, high ones lower potency.
